The target of test [1] is muscarinischen Rezeptoren (Großhirnrinde). The experiment in a line: Receptor binding test, ³H-NMS displacement, cerebral cortex homogenate. Set-up: species or system Sprague-Dawley-Ratten. The settings on record: rat cerebral cortex homogenate; 0,3 n molar ³H-NMS; 30°C, 45 min; read-out: Rezeptor-Bindungs-Tests IC₅₀ Cortex. On the procedure: (§1) Das Gesamtherz wurde […] Organe wurden abschließend in einem Potter homogenisiert. […] Die Inkubation der Organhomogenate erfolgte bei einer bestimmten Konzentration des Radioliganden und […] Testsubstanzen im Eppendorf-Zentrifugenröhrchen bei 30°C. Die Inkubationsdauer betrug 45 Minuten. Als Radioligand wurde 0,3 n molar 3H-N-Methylscopolamin (3H-NMS) verwendet. Die Inkubation wurde durch Zugabe von […] Puffer mit nachfolgender Vakuumfiltration beendet. Die Filter […] Puffer gespült und […] Summe von spezifischer und unspezifischer Bindung von 3H-NMS. Der Anteil der unspezifischen Bindung wurde definiert als jene Radioaktivität, die in Anwesenheit von 1 μ molar Quinuclidinylbenzilat gebunden wurde. […]. Die IC50-Werte der nicht-markierten Testsubstanzen […] jene Konzentration der Testsubstanz, bei welcher die spezifische Bindung von 3H-NMS an die muscarinischen Rezeptoren in den verschiedenen Organen um 50 % gehemmt wurde. Die Ergebnisse sind aus der Tabelle 1 zu […].

Test [2] has as its target T1, muscarinischen Rezeptoren (Gesamtherz) (Rattus norvegicus, UniProt P10980).
T1 construct: Das Gesamtherz wurde mit einer Schere zerkleinert; from tissue; host or cells: rat whole heart homogenate
T1 sequence (P10980 1-466): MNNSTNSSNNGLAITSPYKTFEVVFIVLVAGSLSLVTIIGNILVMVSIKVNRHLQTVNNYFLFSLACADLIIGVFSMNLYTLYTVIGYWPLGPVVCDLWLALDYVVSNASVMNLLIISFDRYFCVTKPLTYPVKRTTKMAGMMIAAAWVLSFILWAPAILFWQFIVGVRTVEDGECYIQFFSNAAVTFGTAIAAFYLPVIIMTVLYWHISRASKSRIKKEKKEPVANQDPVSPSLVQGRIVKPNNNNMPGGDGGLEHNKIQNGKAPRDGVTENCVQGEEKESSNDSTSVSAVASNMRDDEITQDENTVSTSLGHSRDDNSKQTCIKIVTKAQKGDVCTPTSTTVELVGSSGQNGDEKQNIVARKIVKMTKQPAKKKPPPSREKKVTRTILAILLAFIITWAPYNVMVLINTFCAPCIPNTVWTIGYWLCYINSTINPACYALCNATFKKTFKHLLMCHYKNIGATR
The experiment in a line: Receptor binding test, ³H-NMS displacement, whole heart homogenate. Set-up: species or system Sprague-Dawley-Ratten. The settings on record: 0,3 n molar ³H-NMS, 30°C, 45 min, read-out: Rezeptor-Bindungs-Tests IC₅₀ Herz. As for the experimental part:
as §1

For a further test, the system named is vagale Bradykardie (M₂). The experiment in a line: M1/M2 selectivity in the rat: inhibition of bradycardia evoked by vagus stimulation. It counts as in vivo, THOM-Ratten. The settings on record: i.v., dose reducing vagal bradycardia (M₂) by 50%, 5 min after injection. As for the experimental part: (§2) Die angewandte Methode wurde von Hammer und Giachetti (Life Sciences 31, 2991-2998 (1982)) beschrieben. 5 Minuten nach intravenöser Injektion steigender Dosen der Substanz wurden entweder der rechte Vagus elektrisch stimuliert (Frequenz: 25 Hz; Pulsbreite: 2ms; Reizdauer: 30s; Voltzahl: supramaximal) oder 0,3 mg/kg McN-A-343 in männliche THOM-Ratten intravenös injiziert. Die durch Vagusstimulation hervorgerufene Bradykardie und der durch McN-A-343 verursachte Blutdruckanstieg wurden bestimmt. Die Dosis der Substanzen, die entweder die vagale Bradykardie (M₂) oder den Blutdruckanstieg (M₁) um 50% verminderte, wurde graphisch ermittelt. Ergebnisse siehe Tabelle II.

For the next test, the system named is Blutdruckanstieg (M₁). Kind of test: M1/M2 selectivity in the rat: inhibition of blood pressure rise caused by McN-A-343. It counts as in vivo, THOM-Ratten. The settings on record: i.v., dose reducing blood pressure rise (M₁) caused by 0,3 mg/kg McN-A-343 by 50%. As for the experimental part: as §2
The test system of a further test is Speichelsekretion. Kind of test: Inhibition of pilocarpine-induced salivation in the rat. In kind it is in vivo, THOM-Ratten. The settings on record: urethane-anaesthetised rat, i.v.; dose reducing saliva volume by 50%; 2 mg/kg pilocarpine s.c. As for the experimental part: Nach Lavy und Mulder (Arch. int. Pharmacodyn. 178, 437-445, (1969)) erhielten mit 1,2 g/kg Urethan narkotisierte männliche THOM-Ratten steigende Dosen der Substanz i.v.. Die Speichelsekretion wurde durch s.c. Gabe von 2 mg/kg Pilocarpin ausgelöst. Der Speichel wurde mit Fließpapier aufgesaugt, die von ihm eingenommene Fläche alle 5 Minuten planimetrisch bestimmt. Die Dosis der Substanz, die das Speichelvolumen um 50% verminderte, wurde graphisch ermittelt.

For a further test, the system named is Herzfrequenz. Kind of test: Inhibition of the acetylcholine effect on heart rate of the guinea pig. In kind it is in vivo, Meerschweinchen. As to conditions: anaesthetised guinea pig; 10 µg/kg acetylcholine 5 min after test substance; heart rate (ECG). As for the experimental part:
(§3) Am narkotisierten Meerschweinchen wurden 5 Minuten nach Gabe der Prüfsubstanz 10 µg/kg Acetylcholin intravenös als auch gleichzeitig intraarteriell injiziert. Dabei wurde die Herzfrequenz durch extrakorporale Ableitung des EKG, der Ausatemwiderstand nach Konzett-Rößler und die Kontraktion der freigelegten Harnblase direkt registriert. Für die Hemmung der Acetylcholinwirkung an den untersuchten Organen wurden Dosis-Wirkungskurven aufgenommen und daraus -log ED₅₀-Werte bestimmt. Ergebnisse siehe Tabelle III.

Another test deals with Bronchien. Kind of test: Inhibition of the acetylcholine effect on bronchi of the guinea pig. It counts as in vivo, Meerschweinchen. The settings on record: anaesthetised guinea pig; 10 µg/kg acetylcholine 5 min after test substance; expiratory resistance (Konzett-Rößler). As for the experimental part: Am narkotisierten Meerschweinchen wurden 5 Minuten nach Gabe der Prüfsubstanz 10 µg/kg Acetylcholin intravenös als auch gleichzeitig intraarteriell injiziert. Dabei wurde die Herzfrequenz durch extrakorporale Ableitung des EKG, der Ausatemwiderstand nach Konzett-Rößler und die Kontraktion der freigelegten Harnblase direkt registriert. Für die Hemmung der Acetylcholinwirkung an den untersuchten Organen wurden Dosis-Wirkungskurven aufgenommen und daraus -log ED₅₀-Werte bestimmt.

The subject of another test is Blase. The experiment in a line: Inhibition of the acetylcholine effect on bladder of the guinea pig. It counts as in vivo, Meerschweinchen. As to conditions: anaesthetised guinea pig; 10 µg/kg acetylcholine 5 min after test substance; contraction of exposed urinary bladder. On the procedure:
as §3

In the case of `O=C1Nc2cccnc2N(C(=O)CCCCCN2CCCCC2)c2ccccc21` [A, 5,11-Dihydro-11-[6-(1-piperidinyl)-1-oxohexyl]-6H-pyrido[2,3-b][1,4]benzodiazepin-6-on], the IC50 in test [1] worked out at 60 nM; in test [2] it was 10 nM. Further, the figures for the “-log ED₅₀ Herz” value with vagale Bradykardie (M₂) and in the test with Herzfrequenz were 7.75 Mkg⁻¹ and 6.88 Molkg⁻¹, respectively. Besides, the “-log ED₅₀ Blutdruck” value in the test on Blutdruckanstieg (M₁) is 6.42 Mkg⁻¹. Moreover, the “-log ED₅₀ Salivation” value in the test with Speichelsekretion amounted to 6.65 Mkg⁻¹. The “-log ED₅₀ Bronchien” value in the test with Bronchien was 7.49 Molkg⁻¹. In addition, in the test on Blase, the “-log ED₅₀ Blase” value is on record as 6.20 Molkg⁻¹.
As to `CN1CCN(CC(=O)N2c3ccccc3C(=O)Nc3cccnc32)CC1` [C, 5,11-Dihydro-11-[(4-methyl-1-piperazinyl)acetyl]-6H-pyrido[2,3-b][1,4]benzodiazepin-6-on], the “-log ED₅₀ Salivation” value with Speichelsekretion is recorded as 6.22 Mkg⁻¹. Besides, the “-log ED₅₀ Herz” value with Herzfrequenz stood at 5.85 Molkg⁻¹. Moreover, the “-log ED₅₀ Bronchien” value with Bronchien turned out to be 6.57 Molkg⁻¹. For the same compound, the “-log ED₅₀ Blase” value in the test with Blase was 5.36 Molkg⁻¹.
For `CN1[C@@H]2CC[C@H]1C[C@@H](OC(=O)C(CO)c1ccccc1)C2` (stereo partly drawn) [D, Atropin], the “-log ED₅₀ Herz” value worked out at 7.94 Mkg⁻¹ with vagale Bradykardie (M₂) and 7.70 Molkg⁻¹ in the test with Herzfrequenz. The “-log ED₅₀ Blutdruck” value in the test with Blutdruckanstieg (M₁) was 7.34 Mkg⁻¹. Besides, the “-log ED₅₀ Blase” value in the test on Blase worked out at 7.03 Molkg⁻¹.
For `CCN(CC)CC1CCCCN1CC(=O)N1c2ccccc2C(=O)Nc2cccnc21` (stereo not drawn) [B, 11-[[2-[(Diethylamino)methyl]-1-piperidinyl]acetyl]-5,11-dihydro-6H-pyrido[2,3-b][1,4]benzodiazepin-6-on], the IC50 amounted to 1200 nM in test [1] and 140 nM in test [2]. In addition, the “-log ED₅₀ Herz” value in the test on vagale Bradykardie (M₂) turned out to be 6.42 Mkg⁻¹; in the test with Herzfrequenz, 5.84 Molkg⁻¹. The “-log ED₅₀ Blutdruck” value in the test with Blutdruckanstieg (M₁) is given as 5.63 Mkg⁻¹. Besides, in the test with Speichelsekretion, the “-log ED₅₀ Salivation” value is recorded as 5.00 Mkg⁻¹. Further, the “-log ED₅₀ Bronchien” value in the test on Bronchien is 5.58 Molkg⁻¹. Besides, the “-log ED₅₀ Blase” value with Blase is reported as 4.73 Molkg⁻¹.

For the origin of these results see EP0326066A2, “Condensed diazepinones, process for their preparation and medicaments containing them” (Dr. Karl Thomae GmbH, priority 1988, dated 1989).
